Assay results as given in ChEMBL document CHEMBL4420075, “Seriniquinones, melanoma-specific anticancer agents” (2016).

What was measured:
Type in all cases: functional
[1] = test system: MOLT-4; test: Growth inhibition of human MOLT4 cells assessed as cell growth incubated for 48 hrs by sulforhodamine B assay; set-up: concentration or dose not given beside the values
[2] = test system: HCC 2998; test: Growth inhibition of human HCC2998 cells assessed as cell growth incubated for 48 hrs by sulforhodamine B assay; set-up: concentration or dose not given beside the values
[3] = test system: DU-145; test: Growth inhibition of human DU145 cells assessed as cell growth incubated for 48 hrs by sulforhodamine B assay; set-up: concentration or dose not given beside the values
[4] = test system: OVCAR-4; test: Growth inhibition of human OVCAR4 cells assessed as cell growth incubated for 48 hrs by sulforhodamine B assay; set-up: concentration or dose not given beside the values
[5] = test system: 786-0; test: Growth inhibition of human 786-0 cells assessed as cell growth incubated for 48 hrs by sulforhodamine B assay; set-up: concentration or dose not given beside the values
[6] = test system: A498; test: Growth inhibition of human A498 cells assessed as cell growth incubated for 48 hrs by sulforhodamine B assay; set-up: concentration or dose not given beside the values
[7] = test system: NCI-H322M; test: Growth inhibition of human NCI-H322M cells assessed as cell growth incubated for 48 hrs by sulforhodamine B assay; set-up: scale not given: the % may be the effect or the level left
[8] = test system: UACC-62; test: Growth inhibition of human UACC62 cells assessed as cell growth incubated for 48 hrs by sulforhodamine B assay; set-up: concentration or dose not given beside the values
[9] = test system: KM12; test: Growth inhibition of human KM12 cells assessed as cell growth incubated for 48 hrs by sulforhodamine B assay; set-up: concentration or dose not given beside the values
[10] = test system: U-251; test: Growth inhibition of human U251 cells assessed as cell growth incubated for 48 hrs by sulforhodamine B assay; set-up: concentration or dose not given beside the values
[11] = test system: IGROV-1; test: Growth inhibition of human IGROV1 cells assessed as cell growth incubated for 48 hrs by sulforhodamine B assay; set-up: scale not given: the % may be the effect or the level left
[12] = test system: MDA-MB-468; test: Growth inhibition of human MDA-MB-468 cells assessed as cell growth incubated for 48 hrs by sulforhodamine B assay; set-up: concentration or dose not given beside the values
[13] = test system: NCI-H522; test: Growth inhibition of human NCI-H522 cells assessed as cell growth incubated for 48 hrs by sulforhodamine B assay; set-up: concentration or dose not given beside the values
[14] = test system: SK-MEL-2; test: Growth inhibition of human SK-MEL-2 cells assessed as cell growth incubated for 48 hrs by sulforhodamine B assay; set-up: concentration or dose not given beside the values
[15] = test system: RXF 393; test: Growth inhibition of human RXF393 cells assessed as cell growth incubated for 48 hrs by sulforhodamine B assay; set-up: concentration or dose not given beside the values
[16] = test system: HOP-62; test: Growth inhibition of human HOP62 cells assessed as cell growth incubated for 48 hrs by sulforhodamine B assay; set-up: concentration or dose not given beside the values
[17] = test system: SF-539; test: Growth inhibition of human SF539 cells assessed as cell growth incubated for 48 hrs by sulforhodamine B assay; set-up: scale not given: the % may be the effect or the level left
[18] = test system: MCF7; test: Growth inhibition of human MCF7 cells assessed as cell growth incubated for 48 hrs by sulforhodamine B assay; set-up: concentration or dose not given beside the values
[19] = test system: RPMI-8226; test: Growth inhibition of human RPMI8226 cells assessed as cell growth incubated for 48 hrs by sulforhodamine B assay; set-up: concentration or dose not given beside the values
[20] = test system: PC-3; test: Growth inhibition of human PC3 cells assessed as cell growth incubated for 48 hrs by sulforhodamine B assay; set-up: concentration or dose not given beside the values
[21] = test system: NCI/ADR-RES; test: Growth inhibition of human NCI/ADR-RES cells assessed as cell growth incubated for 48 hrs by sulforhodamine B assay; set-up: concentration or dose not given beside the values
[22] = test system: CCRF-CEM; test: Growth inhibition of human CCRF-CEM cells assessed as cell growth incubated for 48 hrs by sulforhodamine B assay; set-up: concentration or dose not given beside the values
[23] = test system: HOP-92; test: Growth inhibition of human HOP92 cells assessed as cell growth incubated for 48 hrs by sulforhodamine B assay; set-up: concentration or dose not given beside the values
[24] = test system: CAKI-1; test: Growth inhibition of human Caki1 cells assessed as cell growth incubated for 48 hrs by sulforhodamine B assay; set-up: concentration or dose not given beside the values
[25] = test system: HL-60(TB); test: Growth inhibition of human HL-60(TB) cells assessed as cell growth incubated for 48 hrs by sulforhodamine B assay; set-up: concentration or dose not given beside the values
[26] = test system: T47D; test: Growth inhibition of human T47D cells assessed as cell growth incubated for 48 hrs by sulforhodamine B assay; set-up: concentration or dose not given beside the values
[27] = test system: K562; test: Growth inhibition of human K562 cells assessed as cell growth incubated for 48 hrs by sulforhodamine B assay; set-up: concentration or dose not given beside the values
[28] = test system: SK-MEL-28; test: Growth inhibition of human SK-MEL-28 cells assessed as cell growth incubated for 48 hrs by sulforhodamine B assay; set-up: concentration or dose not given beside the values
[29] = test system: Malme-3M; test: Growth inhibition of human MALME-3M cells assessed as cell growth incubated for 48 hrs by sulforhodamine B assay; set-up: scale not given: the % may be the effect or the level left
[30] = test system: OVCAR-8; test: Growth inhibition of human OVCAR8 cells assessed as cell growth incubated for 48 hrs by sulforhodamine B assay; set-up: concentration or dose not given beside the values
[31] = test system: HCT-116; test: Growth inhibition of human HCT116 cells assessed as cell growth incubated for 48 hrs by sulforhodamine B assay; set-up: concentration or dose not given beside the values
[32] = test system: M14; test: Growth inhibition of human M14 cells assessed as cell growth incubated for 48 hrs by sulforhodamine B assay; set-up: concentration or dose not given beside the values
[33] = test system: SN12C; test: Growth inhibition of human SN12C cells assessed as cell growth incubated for 48 hrs by sulforhodamine B assay; set-up: concentration or dose not given beside the values
[34] = test system: NCI-H226; test: Growth inhibition of human NCI-H226 cells assessed as cell growth incubated for 48 hrs by sulforhodamine B assay; set-up: concentration or dose not given beside the values
[35] = test system: MDA-MB-435; test: Growth inhibition of human MDA-MB-435 cells assessed as cell growth incubated for 48 hrs by sulforhodamine B assay; set-up: concentration or dose not given beside the values
[36] = test system: SR; test: Growth inhibition of human SR cells assessed as cell growth incubated for 48 hrs by sulforhodamine B assay; set-up: concentration or dose not given beside the values
[37] = test system: COLO 205; test: Growth inhibition of human COLO205 cells assessed as cell growth incubated for 48 hrs by sulforhodamine B assay; set-up: concentration or dose not given beside the values
[38] = test system: UACC-257; test: Growth inhibition of human UACC257 cells assessed as cell growth incubated for 48 hrs by sulforhodamine B assay; set-up: concentration or dose not given beside the values
[39] = test system: BT-549; test: Growth inhibition of human BT549 cells assessed as cell growth incubated for 48 hrs by sulforhodamine B assay; set-up: concentration or dose not given beside the values
[40] = test system: OVCAR-3; test: Growth inhibition of human OVCAR3 cells assessed as cell growth incubated for 48 hrs by sulforhodamine B assay; set-up: concentration or dose not given beside the values
[41] = test system: SNB-75; test: Growth inhibition of human SNB75 cells assessed as cell growth incubated for 48 hrs by sulforhodamine B assay; set-up: concentration or dose not given beside the values
[42] = test system: SNB-19; test: Growth inhibition of human SNB19 cells assessed as cell growth incubated for 48 hrs by sulforhodamine B assay; set-up: concentration or dose not given beside the values
[43] = test system: UO-31; test: Growth inhibition of human UO31 cells assessed as cell growth incubated for 48 hrs by sulforhodamine B assay; set-up: concentration or dose not given beside the values
[44] = test system: NCI-H23; test: Growth inhibition of human NCI-H23 cells assessed as cell growth incubated for 48 hrs by sulforhodamine B assay; set-up: concentration or dose not given beside the values
[45] = test system: HT-29; test: Growth inhibition of human HT-29 cells assessed as cell growth incubated for 48 hrs by sulforhodamine B assay; set-up: concentration or dose not given beside the values
[46] = test system: SK-OV-3; test: Growth inhibition of human SKOV3 cells assessed as cell growth incubated for 48 hrs by sulforhodamine B assay; set-up: concentration or dose not given beside the values
[47] = test system: SK-MEL-5; test: Growth inhibition of human SK-MEL-5 cells assessed as cell growth incubated for 48 hrs by sulforhodamine B assay; set-up: concentration or dose not given beside the values
[48] = test system: Hs-578T; test: Growth inhibition of human Hs 578T cells assessed as cell growth incubated for 48 hrs by sulforhodamine B assay; set-up: concentration or dose not given beside the values
[49] = test system: TK-10; test: Growth inhibition of human TK10 cells assessed as cell growth incubated for 48 hrs by sulforhodamine B assay; set-up: concentration or dose not given beside the values
[50] = test system: A549; test: Growth inhibition of human A549/ATCC cells assessed as cell growth incubated for 48 hrs by sulforhodamine B assay; set-up: concentration or dose not given beside the values
[51] = test system: SF-268; test: Growth inhibition of human SF268 cells assessed as cell growth incubated for 48 hrs by sulforhodamine B assay; set-up: concentration or dose not given beside the values
[52] = test system: NCI-H460; test: Growth inhibition of human NCI-H460 cells assessed as cell growth incubated for 48 hrs by sulforhodamine B assay; set-up: concentration or dose not given beside the values
[53] = test system: OVCAR-5; test: Growth inhibition of human OVCAR5 cells assessed as cell growth incubated for 48 hrs by sulforhodamine B assay; set-up: scale not given: the % may be the effect or the level left
[54] = test system: SF-295; test: Growth inhibition of human SF295 cells assessed as cell growth incubated for 48 hrs by sulforhodamine B assay; set-up: concentration or dose not given beside the values
[55] = test system: SW-620; test: Growth inhibition of human SW620 cells assessed as cell growth incubated for 48 hrs by sulforhodamine B assay; set-up: concentration or dose not given beside the values
[56] = test system: MDA-MB-231; test: Growth inhibition of human MDA-MB-231 cells assessed as cell growth incubated for 48 hrs by sulforhodamine B assay; set-up: concentration or dose not given beside the values
[57] = test system: ACHN; test: Growth inhibition of human ACHN cells assessed as cell growth incubated for 48 hrs by sulforhodamine B assay; set-up: scale not given: the % may be the effect or the level left
[58] = test system: HCT-15; test: Growth inhibition of human HCT15 cells assessed as cell growth incubated for 48 hrs by sulforhodamine B assay; set-up: scale not given: the % may be the effect or the level left
[59] = test system: LOX IMVI; test: Growth inhibition of human LOXIMVI cells assessed as cell growth incubated for 48 hrs by sulforhodamine B assay; set-up: concentration or dose not given beside the values

SMILES: O=C([O-])CCc1ccc2c(=O)c3sc4c(=O)c5ccccc5c(=O)c4c3c(=O)c2c1.[Na+]
- Activity [1]: -18.02%
- Activity [2]: -78.44%
- Activity [3]: -94.06%
- Activity [4]: 3.01%
- Activity [5]: -36.85%
- Activity [6]: -94.19%
- Activity [7]: -96.32%
- Activity [8]: -86.72%
- Activity [9]: -4.86%
- Activity [10]: -19.72%
- Activity [11]: -45.75%
- Activity [12]: -23.55%
- Activity [13]: -56.08%
- Activity [14]: -61.62%
- Activity [15]: -40.51%
- Activity [16]: -94.95%
- Activity [17]: -99.93%
- Activity [18]: -42.17%
- Activity [19]: -23.33%
- Activity [20]: 4.12%
- Activity [21]: -16.65%
- Activity [22]: -11.89%
- Activity [23]: 21.71%
- Activity [24]: -11.28%
- Activity [25]: -1.51%
- Activity [26]: 30.96%
- Activity [27]: 1.66%
- Activity [28]: -86.88%
- Activity [29]: -95.72%
- Activity [30]: -11.99%
- Activity [31]: -11.85%
- Activity [32]: -92.46%
- Activity [33]: -86.04%
- Activity [34]: -50.22%
- Activity [35]: -79.57%
- Activity [36]: -13.25%
- Activity [37]: -95.3%
- Activity [38]: -93.7%
- Activity [39]: -93.17%
- Activity [40]: -20.41%
- Activity [41]: -92.01%
- Activity [42]: -46.21%
- Activity [43]: -62.16%
- Activity [44]: -48.38%
- Activity [45]: -35.38%
- Activity [46]: -20.08%
- Activity [47]: -98.11%
- Activity [48]: -2.26%
- Activity [49]: -13.65%
- Activity [50]: -52.48%
- Activity [51]: -4.66%
- Activity [52]: -47.6%
- Activity [53]: -91.27%
- Activity [54]: -92.24%
- Activity [55]: -35.47%
- Activity [56]: 7.51%
- Activity [57]: 3.07%
- Activity [58]: -51.47%
- Activity [59]: -79.48%
